From US7384975B2, “Substituted furochromenes, preparation thereof and their antiinflammatory action” (GlaxoSmithKline Istrazivacki Centar Zagreb d.o.o., priority 2003, dated 2008)

Tested on: Balb/C mice
Experiment: Model of lung eosinophilia in mice (ovalbumin sensitization and provocation)
Assay type: in vivo
Details: i.n. 2 mg/kg daily from 2 days prior to the provocative test until the end, lavage 48 hours after ovalbumin provocation
Experimental: Model of Lung Eosinophilia in Mice
Male Balb/C mice (Charles River) of 20-25 g of body weight were randomly divided into groups. They were sensitized by i.p. application of ovalbumin (Sigma) on days zero and fourteen. On day twenty the mice were subjected to a provocative test by i.n. application of ovalbumin (positive control and test groups) or PBS (negative control). After 48 hours the animals were anesthetized and the lungs were rinsed with 1 mL of PBS. The cells were centrifuged on Cytospin 3 cytocentrifuge (Shandon). Then the cells were stained with Diff-Quick (Dade) and the percentage of eosinophils was determined by differential counting of at least 100 cells.
Beclomethazone was used as a standard substance in addition to positive and negative controls. The compound was applied daily i.n. in a dose of 2 mg/kg for 2 days prior to the provocative test and until the end of the investigation.
The compound 13 reduced the number of eosinophils in the lavage and histological preparations of lungs for 50% in relation to the positive control group.

O=c1oc2cc(O)cc(O)c2c(O)c1-c1cc2c(=O)oc3cc(O)cc(O)c3c2o1 [Compound 13, 7,9-Dihydroxy-2-(4,5,7-trihydroxy-2-oxo-2H-chromene-3-yl)-4H-furo[3,2-c]chromene-4-one]
reduction of the number of eosinophils in the lavage and histological preparations of lungs in relation to the positive control group: 50%
